Test system: SD rat adjuvant arthritis (AA) model
Test: SD rat adjuvant arthritis (AA) model, arthritis index
Type: in vivo
Procedure: In this example, SD rat adjuvant arthritis (AA) model (purchased from the Experimental Animal Center of Anhui Province) was used. PCI-32765 and methotrexate (MTX) were used as positive control (both purchased from Shanghai Chemexpress). The therapeutic effect of Compound 1 on AA rats was studied via the combination of in vivo and in vitro administration. 10 mg/nal of complete Freund's adjuvant (CFA, purchased from Shanghai Chemexpress) was mixed well, and 0.1 ml of CFA was intracutaneously injected into each rat at right posterior plantar to induce inflammation. The normal group was injected with saline via the same method. On the 17th day, the successful modeling male SD rats were randomly divided into 7 groups with 10 rats in each group, namely the model group, the small/medium/large dose of Compound 1 group (12.5, 25, 50 mg/kg/per administration, intraperitoneal injection, one administration per day for 16 days), the Compound 19 group (25 mg/kg/per administration, intraperitoneal injection, one administration per day for 16 days), the positive control PCI-32765 group (25 mg/kg/per administration, intraperitoneal injection, one administration per day for 16 days), the MTX group (0.5 mg/kg, intragastrical, one administration every 3 days, totally 6 times). The rats in the model group were intraperitoneally injected with the same amount of DMSO solution.

SMILES | effect on arthritis index of rats (25 mg/kg intraperitoneal once per day, starting from day 24) | effect on arthritis index of rats compared with the model group (0.5 mg/kg intragastrical every 3 days, starting from day 21)
C=CC(=O)N1CCC[C@@H](n2nc(-c3ccc(Oc4ccccc4)cc3)c3c(N)ncnc32)C1 [PCI-32765, reference compound] | significantly reduce | 
CN(Cc1cnc2nc(N)nc(N)c2n1)c1ccc(C(=O)N[C@@H](CCC(=O)O)C(=O)O)cc1 [MTX, methotrexate, reference compound] |  | significantly reduced
